Data: patent US10954228B2 (NATIONAL INSTITUTES OF HEALTH, UNITED STATES DEPARTMENT OF …, priority 2016, dated 2021)

target: Human LDHA (Homo sapiens (Human), UniProt P00338); assay: human LDHA primary biochemical assay; conditions: biochemical LDHA inhibitory activity, assay of Example 1; activity level classes defined in nM
Description: This example describes a human LDHA primary biochemical assay employed in the characterization of a compound of formula (I) in an embodiment of the invention.
Test compounds were placed in a Greiner Bio-One (Monroe, N.C.) 1536-well black solid bottom assay plate. 200 millimolar (mM) Tris HCl, pH 7.4, 100 micromolar (μM) EDTA and 0.01% TWEEN-20™, final concentration, was used as the assay buffer. The LDHA reagent was 2 nanomolar (nM) Human LDHA (Meridian Life Science, Inc., Memphis, Tenn.), final concentration, in assay buffer. The substrate reagent was 0.06 mM NADH and 0.2 mM sodium pyruvate, final concentration, in assay buffer. The resazurin/diaphorase coupling reagent was 0.037 mM resazurin and 0.133 milligrams per milliliter (mg/mL) diaphorase, final concentration, in assay buffer. The inhibition of LDHA activity was measured by fluorescence emission.

IC50 [nM] | SMILES
100 to 1000 | NS(=O)(=O)c1ccc(Cc2c(-c3cccc(-c4ccc(CC(F)(F)F)cc4)c3)nn(-c3nc(C(=O)O)cs3)c2CC2CC2)cc1F [Compound 187, 2-(5-(cyclopropylmethyl)-4-(3-fluoro-4-sulfamoylbenzyl)-3-(4′-(2,2,2-trifluoroethyl)-[1,1′-biphenyl]-3-yl)-1H-pyrazol-1-yl)thiazole-4-carboxylic acid]
< 100 | NS(=O)(=O)c1ccc(Cc2c(-c3cccc(-c4nc5ccccc5[nH]4)c3)nn(-c3nc(C(=O)O)cs3)c2CC2CC2)cc1F [Compound 189, 2-(3-(3-(1H-benzo[d]imidazol-2-yl)phenyl)-5-(cyclopropylmethyl)-4-(3-fluoro-4-sulfamoylbenzyl)-1H-pyrazol-1-yl)thiazole-4-carboxylic acid]
< 100 | COc1ccc(-c2cc(-c3nn(-c4nc(C(=O)O)cs4)c(CC4CC4)c3Cc3ccc(S(N)(=O)=O)c(F)c3)ccc2F)cc1Cl [Compound 191, 2-(3-(3′-chloro-6-fluoro-4′-methoxy-[1,1′-biphenyl]-3-yl)-5-(cyclopropylmethyl)-4-(3-fluoro-4-sulfamoylbenzyl)-1H-pyrazol-1-yl)thiazole-4-carboxylic acid]
100 to 1000 | CC(C)(C)c1cccc(-c2cc(-c3nn(-c4nc(C(=O)O)cs4)c(CC4CC4)c3Cc3ccc(S(N)(=O)=O)c(F)c3)ccc2F)c1 [Compound 192, 2-(3-(3′-(tert-butyl)-6-fluoro-[1,1′-biphenyl]-3-yl)-5-(cyclopropylmethyl)-4-(3-fluoro-4-sulfamoylbenzyl)-1H-pyrazol-1-yl)thiazole-4-carboxylic acid]
100 to 1000 | CC(C)(C)c1ccc(-c2cc(-c3nn(-c4nc(C(=O)O)cs4)c(CC4CC4)c3Cc3ccc(S(N)(=O)=O)c(F)c3)ccc2F)cc1 [Compound 193, 2-(3-(4′-(tert-butyl)-6-fluoro-[1,1′-biphenyl]-3-yl)-5-(cyclopropylmethyl)-4-(3-fluoro-4-sulfamoylbenzyl)-1H-pyrazol-1-yl)thiazole-4-carboxylic acid]
< 100 | CN(C)c1cccc(-c2cc(-c3nn(-c4nc(C(=O)O)cs4)c(CC4CC4)c3Cc3ccc(S(N)(=O)=O)c(F)c3)ccc2F)c1 [Compound 194, 2-(5-(cyclopropylmethyl)-3-(3′-(dimethylamino)-6-fluoro-[1,1′-biphenyl]-3-yl)-4-(3-fluoro-4-sulfamoylbenzyl)-1H-pyrazol-1-yl)thiazole-4-carboxylic acid]
< 100 | Cc1cc(-c2cc(-c3nn(-c4nc(C(=O)O)cs4)c(CC4CC4)c3Cc3ccc(S(N)(=O)=O)c(F)c3)ccc2F)ccc1F [Compound 195, 2-(5-(cyclopropylmethyl)-3-(4′,6-difluoro-3′-methyl-[1,1′-biphenyl]-3-yl)-4-(3-fluoro-4-sulfamoylbenzyl)-1H-pyrazol-1-yl)thiazole-4-carboxylic acid]
< 100 | N#Cc1cccc(-c2cc(-c3nn(-c4nc(C(=O)O)cs4)c(CC4CC4)c3Cc3ccc(S(N)(=O)=O)c(F)c3)ccc2F)c1 [Compound 200, 2-(3-(3′-cyano-6-fluoro-[1,1′-biphenyl]-3-yl)-5-(cyclopropylmethyl)-4-(3-fluoro-4-sulfamoylbenzyl)-1H-pyrazol-1-yl)thiazole-4-carboxylic acid]
< 100 | N#Cc1ccc(-c2cc(-c3nn(-c4nc(C(=O)O)cs4)c(CC4CC4)c3Cc3ccc(S(N)(=O)=O)c(F)c3)ccc2F)cc1 [Compound 201, 2-(3-(4′-cyano-6-fluoro-[1,1′-biphenyl]-3-yl)-5-(cyclopropylmethyl)-4-(3-fluoro-4-sulfamoylbenzyl)-1H-pyrazol-1-yl)thiazole-4-carboxylic acid]
< 100 | NS(=O)(=O)c1ccc(Cc2c(-c3ccc(F)c(N4CCCC4=O)c3)nn(-c3nc(C(=O)O)cs3)c2CC2CC2)cc1F [Compound 202, 2-(5-(cyclopropylmethyl)-3-(4-fluoro-3-(2-oxopyrrolidin-1-yl)phenyl)-4-(3-fluoro-4-sulfamoylbenzyl)-1H-pyrazol-1-yl)thiazole-4-carboxylic acid]
< 100 | Cc1ccc(-c2cccc(-c3nn(-c4nc(C(=O)O)cs4)c(CC4CC4)c3Cc3ccc(S(N)(=O)=O)c(F)c3)c2)nc1 [Compound 203, 2-(5-(cyclopropylmethyl)-4-(3-fluoro-4-sulfamoylbenzyl)-3-(3-(5-methylpyridin-2-yl)phenyl)-1H-pyrazol-1-yl)thiazole-4-carboxylic acid]
< 100 | Cc1ccc(-c2cccc(-c3nn(-c4nc(C(=O)O)cs4)c(CC4CC4)c3Cc3ccc(S(N)(=O)=O)c(F)c3)c2)cn1 [Compound 204, 2-(5-(cyclopropylmethyl)-4-(3-fluoro-4-sulfamoylbenzyl)-3-(3-(6-methylpyridin-3-yl)phenyl)-1H-pyrazol-1-yl)thiazole-4-carboxylic acid]
100 to 1000 | NS(=O)(=O)c1ccc(Cc2c(-c3cccc(-c4ccc(C(F)(F)C(F)(F)F)cc4)c3)nn(-c3nc(C(=O)O)cs3)c2CCC2CC2)cc1F [Compound 205, 2-(5-(2-cyclopropylethyl)-4-(3-fluoro-4-sulfamoylbenzyl)-3-(4′-(perfluoroethyl)-[1,1′-biphenyl]-3-yl)-1H-pyrazol-1-yl)thiazole-4-carboxylic acid]
100 to 1000 | CC(C)c1ccc(-c2cccc(-c3nn(-c4nc(C(=O)O)cs4)c(CCC4CC4)c3Cc3ccc(S(N)(=O)=O)c(F)c3)c2)cc1 [Compound 206, 2-(5-(2-cyclopropylethyl)-4-(3-fluoro-4-sulfamoylbenzyl)-3-(4′-isopropyl-[1,1′-biphenyl]-3-yl)-1H-pyrazol-1-yl)thiazole-4-carboxylic acid]
100 to 1000 | CC(C)Cc1ccc(-c2cccc(-c3nn(-c4nc(C(=O)O)cs4)c(CCC4CC4)c3Cc3ccc(S(N)(=O)=O)c(F)c3)c2)cc1 [Compound 207, 2-(5-(2-cyclopropylethyl)-4-(3-fluoro-4-sulfamoylbenzyl)-3-(4′-isobutyl-[1,1′-biphenyl]-3-yl)-1H-pyrazol-1-yl)thiazole-4-carboxylic acid]
100 to 1000 | Cc1ccc(-c2ccc(-c3cccc(-c4nn(-c5nc(C(=O)O)cs5)c(CC5CC5)c4Cc4ccc(S(N)(=O)=O)c(F)c4)c3)cc2)s1 [Compound 208, 2-(5-(cyclopropylmethyl)-4-(3-fluoro-4-sulfamoylbenzyl)-3-(4′-(5-methylthiophen-2-yl)-[1,1′-biphenyl]-3-yl)-1H-pyrazol-1-yl)thiazole-4-carboxylic acid]
100 to 1000 | Cc1ccc(-c2ccc(-c3cc(-c4nn(-c5nc(C(=O)O)cs5)c(CC5CC5)c4Cc4ccc(S(N)(=O)=O)c(F)c4)ccc3F)cc2)s1 [Compound 209, 2-(5-(cyclopropylmethyl)-3-(6-fluoro-4′-(5-methylthiophen-2-yl)-[1,1′-biphenyl]-3-yl)-4-(3-fluoro-4-sulfamoylbenzyl)-1H-pyrazol-1-yl)thiazole-4-carboxylic acid]
< 100 | CC(C)c1ccc(-c2cncc(-c3nn(-c4nc(C(=O)O)cs4)c(CC4CC4)c3Cc3ccc(S(N)(=O)=O)c(F)c3)c2)cc1 [Compound 210, 2-[5-(cyclopropylmethyl)-4-[(3-fluoro-4-sulfamoylphenyl)methyl]-3-[5-(4-isopropylphenyl)pyridin-3-yl]pyrazol-1-yl]-1,3-thiazole-4-carboxylic acid]
100 to 1000 | CC(C)c1ccc(-c2cccc(-c3nn(-c4nc(C(=O)O)cs4)c(CC4CC4)c3Cc3ccc(S(N)(=O)=O)c(F)c3)n2)cc1 [Compound 211, 2-[5-(cyclopropylmethyl)-4-[(3-fluoro-4-sulfamoylphenyl)methyl]-3-[6-(4-isopropylphenyl)pyridin-2-yl]pyrazol-1-yl]-1,3-thiazole-4-carboxylic acid]
100 to 1000 | NS(=O)(=O)c1ccc(Cc2c(-c3ccc(F)c(-c4ccc(C5CC5)c(F)c4)c3)nn(-c3nc(C(=O)O)cs3)c2CC2CC2)cc1F [Compound 212, 2-{3-[3-(4-cyclopropyl-3-fluorophenyl)-4-fluorophenyl]-5-(cyclopropylmethyl)-4-[(3-fluoro-4-sulfamoylphenyl)methyl]pyrazol-1-yl}-1,3-thiazole-4-carboxylic acid]
< 100 | Cc1cc(-c2cc(-c3nn(-c4nc(C(=O)O)cs4)c(CC4CC4)c3Cc3ccc(S(N)(=O)=O)c(F)c3)ccc2F)ccc1C(C)C [Compound 213, 2-[5-(cyclopropylmethyl)-3-[4-fluoro-3-(4-isopropyl-3-methylphenyl)phenyl]-4-[(3-fluoro-4-sulfamoylphenyl)methyl]pyrazol-1-yl]-1,3-thiazole-4-carboxylic acid]
< 100 | Cc1ncc(-c2cccc(-c3nn(-c4nc(C(=O)O)cs4)c(CC4CC4)c3Cc3ccc(S(N)(=O)=O)c(F)c3)c2)cn1 [Compound 214, 2-[5-(cyclopropylmethyl)-4-[(3-fluoro-4-sulfamoylphenyl)methyl]-3-[3-(2-methylpyrimidin-5-yl)phenyl]pyrazol-1-yl]-1,3-thiazole-4-carboxylic acid]
< 100 | CC(C)c1cnc(-c2cccc(-c3nn(-c4nc(C(=O)O)cs4)c(CC4CC4)c3Cc3ccc(S(N)(=O)=O)c(F)c3)c2)s1 [Compound 215, 2-[5-(cyclopropylmethyl)-4-[(3-fluoro-4-sulfamoylphenyl)methyl]-3-[3-(5-isopropyl-1,3-thiazol-2-yl)phenyl]pyrazol-1-yl]-1,3-thiazole-4-carboxylic acid]

SMILES | IC50 [nM]
Cc1ccc(-c2cccc(-c3nn(-c4nc(C(=O)O)cs4)c(CC4CC4)c3Cc3ccc(S(N)(=O)=O)c(F)c3)c2)cc1 [Compound 198, 2-(5-(cyclopropylmethyl)-4-(3-fluoro-4-sulfamoylbenzyl)-3-(4′-methyl-[1,1′-biphenyl]-3-yl)-1H-pyrazol-1-yl)thiazole-4-carboxylic acid] | < 100
